Test results from patent publication US20090286827A1, “NOVEL BI-ARYL AMINES” (priority 2006, published 2009).

biological target: T1, mGluR5 (Homo sapiens, UniProt P41594); test: inhibition of the glutamate induced elevation of intracellular Ca2+-concentration; format: cell-based; conditions: inhibition of glutamate induced elevation of intracellular Ca2+ at a concentration of 10 μM
T1 construct: expressed in transfected cells
From the text: This can be determined in vitro for example at recombinant human metabotropic glutamate receptors, especially PLC-coupled subtypes thereof such as mGluR5, using different procedures like, for example, measurement of the inhibition of the agonist induced elevation of intracellular Ca^2+ concentration in accordance with L. P. Daggett et al., Neuropharm. Vol. 34, pages 871-886 (1995), P. J. Flor et al., J. Neurochem. Vol. 67, pages 58-63 (1996) or by determination to what extent the agonist induced elevation of the inositol phosphate turnover is inhibited as described by T. Knoepfel et al., Eur. J. Pharmacol. Vol. 288, pages 389-392 (1995), L. P. Daggett et al., Neuropharm. Vol. 34, pages 871-886 (1995) and references cited therein. Isolation and expression of human mGluR subtypes are described in U.S. Pat. No. 5,521,297. Selected agents of the invention show IC50 values for the inhibition of the agonist (e.g. glutamate or quisqualate) induced elevation of intracellular Ca2+ concentration or the agonist (e.g. glutamate or quisqualate) induced inositol phosphate turnover, measured in recombinant cells expressing hmGluR5a of about 1 nM to about 50 μM.
Activity of compounds of the present invention was examined by measurement of the inhibition of the glutamate induced elevation of intracellular Ca^2+-concentration following similar methods than those described in L. P. Daggett et al., Neuropharm. Vol. 34, pages 871-886 (1995), P. J. Flor et al., J. Neurochem. Vol. 67, pages 58-63 (1996).
The table below represents percentages of inhibition of the glutamate induced elevation of intracellular Ca^2+-concentration at a concentration of 10 μM.

T1 sequence (P41594 21-1180 isoform P41594-2 limits assumed): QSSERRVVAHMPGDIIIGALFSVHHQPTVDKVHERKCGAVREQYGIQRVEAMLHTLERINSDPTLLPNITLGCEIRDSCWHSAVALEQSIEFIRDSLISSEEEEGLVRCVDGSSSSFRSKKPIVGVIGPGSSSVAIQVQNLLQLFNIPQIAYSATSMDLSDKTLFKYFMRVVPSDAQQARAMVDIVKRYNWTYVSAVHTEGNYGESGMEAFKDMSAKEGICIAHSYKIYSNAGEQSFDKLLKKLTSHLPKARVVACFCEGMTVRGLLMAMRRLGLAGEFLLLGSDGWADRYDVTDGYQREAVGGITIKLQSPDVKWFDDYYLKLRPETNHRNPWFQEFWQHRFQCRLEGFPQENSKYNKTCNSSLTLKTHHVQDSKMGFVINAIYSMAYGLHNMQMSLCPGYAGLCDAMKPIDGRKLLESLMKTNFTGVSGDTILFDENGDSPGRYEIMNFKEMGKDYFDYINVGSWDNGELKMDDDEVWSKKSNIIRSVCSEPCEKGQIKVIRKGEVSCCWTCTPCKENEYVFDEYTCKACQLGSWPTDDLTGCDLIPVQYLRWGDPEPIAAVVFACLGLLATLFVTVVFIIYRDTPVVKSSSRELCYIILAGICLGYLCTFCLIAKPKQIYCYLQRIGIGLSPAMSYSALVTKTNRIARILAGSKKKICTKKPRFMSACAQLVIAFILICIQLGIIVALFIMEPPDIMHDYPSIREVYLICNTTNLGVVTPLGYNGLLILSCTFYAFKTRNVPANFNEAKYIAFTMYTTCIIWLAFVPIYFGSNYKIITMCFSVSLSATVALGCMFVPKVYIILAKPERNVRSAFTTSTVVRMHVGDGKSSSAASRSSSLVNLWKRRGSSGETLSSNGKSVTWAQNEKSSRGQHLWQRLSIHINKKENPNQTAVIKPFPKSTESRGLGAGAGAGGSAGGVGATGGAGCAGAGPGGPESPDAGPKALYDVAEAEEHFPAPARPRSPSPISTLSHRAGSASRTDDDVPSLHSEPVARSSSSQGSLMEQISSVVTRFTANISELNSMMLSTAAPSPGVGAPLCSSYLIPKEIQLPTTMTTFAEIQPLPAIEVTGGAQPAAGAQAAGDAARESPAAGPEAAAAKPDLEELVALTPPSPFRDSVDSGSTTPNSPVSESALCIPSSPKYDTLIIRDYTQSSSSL

Row | mGluR5 Activity inh. at 10 μM [%] | Structure (SMILES)
1 | 27% | Clc1ccc(Nc2ccc(-c3nccn3C3CCCCC3)cn2)cc1 [Compound 7, (4-Chloro-phenyl)-[5-(1-yclohexyl-1H-imidazol-2-yl)-pyridin-2-yl]-amine]

same assay, conditions: inhibition of glutamate induced elevation of intracellular Ca2+ at a concentration of 10 μM; read-out: mGluR5 Activity inh. at 10 μM [%]

Row | Structure (SMILES) | inhibition at 10 µM
2 | CCCn1ccnc1-c1ccc(Nc2ccc(Cl)cc2)nc1 [Compound 3, (4-Chloro-phenyl)-[5-(1-propyl-1H-imidazol-2-yl)-pyridin-2-yl]-amine] | 96%
3 | CC(C)n1ccnc1-c1ccc(Nc2ccc(Cl)cc2)nc1 [Compound 4, (4-Chloro-phenyl)-[5-(1-isopropyl-1H-imidazol-2-yl)-pyridin-2-yl]-amine] | 93%
4 | CC(C)Cn1ccnc1-c1ccc(Nc2ccc(Cl)cc2)nc1 [Compound 5, (4-Chloro-phenyl)-[5-(1-isobutyl-1H-imidazol-2-yl)-pyridin-2-yl]-amine] | 95%
5 | Clc1ccc(Nc2ccc(-c3nccn3CC3CC3)cn2)cc1 [Compound 6, (4-Chloro-phenyl)-[5-(1-cyclopropylmethyl-1H-imidazol-2-yl)-pyridin-2-yl]-amine] | 96%
6 | Clc1ccc(Nc2ccc(-c3nccn3-c3ccccc3)cn2)cc1 [Compound 9, (4-Chloro-phenyl)-[5-(1-phenyl-1H-imidazol-2-yl)-pyridin-2-yl]-amine] | 63%
7 | CC(C)n1cnc(-c2ccc(Nc3ccc(Cl)cc3)nc2)c1 [Compound 11, (4-Chloro-phenyl)-[5-(1-isopropyl-1H-imidazol-4-yl)-pyridin-2-yl]-amine] | 56%
8 | Clc1ccc(Nc2ccc(-c3nnc4ccccn34)cn2)cc1 [Compound 14, (4-Chloro-phenyl)-(5-[1,2,4]triazolo[4,3-a]pyridin-3-yl-pyridin-2-yl)-amine] | 28%
9 | Clc1ccc(Nc2ncc(-c3ncc4ccccn34)cc2Cl)cc1 [Compound 16, (3-Chloro-5-imidazo[1,5-a]pyridin-3-yl-pyridin-2-yl)-(4-chloro-phenyl)-amine] | 32%
10 | CCCn1ccnc1-c1cnc(Nc2ccc(Cl)cc2)c(Cl)c1 [Compound 19, (4-Chloro-phenyl)-[3-chloro-5-(1-propyl-1H-imidazol-2-yl)-pyridin-2-yl]-amine] | 97%
11 | CCn1c(-c2cnc(Nc3ccc(Cl)cc3)c(Cl)c2)nc(C)c1C [Compound 20, [3-Chloro-5-(1-ethyl-4,5-dimethyl-1H-imidazol-2-yl)-pyridin-2-yl]-(4-chloro-phenyl)-amine] | 92%
12 | Clc1ccc(Nc2ncc(-c3nnc4n3CCCCCCC4)cc2Cl)cc1 [Compound 27, [3-Chloro-5-(6,7,8,9,10,11-hexahydro-5H-[1,2,4]triazolo[4,3-a]azonin-3-yl)-pyridin-2-yl]-(4-chloro-phenyl)-amine] | 100%
13 | Cc1cc(-c2cnc(Nc3ccc(Cl)cc3)c(Cl)c2)n(C)n1 [Compound 29, [3-Chloro-5-(2,5-dimethyl-2H-pyrazol-3-yl)-pyridin-2-yl]-(4-chloro-phenyl)-amine] | 39%
14 | CCn1cc(C)nc1-c1cnc(Nc2ccc(Cl)cc2)c(Cl)c1 [Compound 32, [3-Chloro-5-(1-ethyl-4-methyl-1H-imidazol-2-yl)-pyridin-2-yl]-(4-chloro-phenyl)-amine] | 95%
15 | CCCn1cc(C)nc1-c1cnc(Nc2ccc(Cl)cc2)c(Cl)c1 [Compound 33, [3-Chloro-5-(4-methyl-1-propyl-1H-imidazol-2-yl)-pyridin-2-yl]-(4-chloro-phenyl)-amine] | 100%
16 | CCCn1cc(CC)nc1-c1cnc(Nc2ccc(Cl)cc2)c(Cl)c1 [Compound 34, [3-Chloro-5-(4-ethyl-1-propyl-1H-imidazol-2-yl)-pyridin-2-yl]-(4-chloro-phenyl)-amine] | 100%
17 | CCc1cn(CC)c(-c2cnc(Nc3ccc(Cl)cc3)c(Cl)c2)n1 [Compound 36, [3-Chloro-5-(1,4-diethyl-1H-imidazol-2-yl)-pyridin-2-yl]-(4-chloro-phenyl)-amine] | 78%
18 | CC(C)(C)c1cnc(-c2cnc(Nc3ccc(Cl)cc3)c(Cl)c2)[nH]1 [Compound 37, [5-(5-tert-Butyl-1H-imidazol-2-yl)-3-chloro-pyridin-2-yl]-(4-chloro-phenyl)-amine] | 95%

Further lines, results first:

Row | inhibition at 10 µM | Structure (SMILES)
19 | 94% | CCn1ccnc1-c1ccc(Nc2ccc(Cl)cc2)nc1 [Compound 1, (4-Chloro-phenyl)-[5-(1-ethyl-1H-imidazol-2-yl)-pyridin-2-yl]-amine]
20 | 81% | Cn1ccnc1-c1ccc(Nc2ccc(Cl)cc2)nc1 [Compound 2, (4-Chloro-phenyl)-[5-(1-methyl-1H-imidazol-2-yl)-pyridin-2-yl]-amine]
21 | 36% | Clc1ccc(Nc2ccc(-c3nccn3Cc3ccccc3)cn2)cc1 [Compound 8, [5-(1-Benzyl-1H-imidazol-2-yl)-pyridin-2-yl]-(4-chloro-phenyl)-amine]
22 | 73% | CC(C)n1cncc1-c1ccc(Nc2ccc(Cl)cc2)nc1 [Compound 10, (4-Chloro-phenyl)-[5-(3-isopropyl-3H-imidazol-4-yl)-pyridin-2-yl]-amine]
23 | 40% | CC(C)n1cnnc1-c1ccc(Nc2ccc(Cl)cc2)nc1 [Compound 12, (4-Chloro-phenyl)-[5-(4-isopropyl-4H-[1,2,4]triazol-3-yl)-pyridin-2-yl]-amine]
24 | 95% | Clc1ccc(Nc2ccc(-c3nnc4n3CCCC4)cn2)cc1 [Compound 13, (4-Chloro-phenyl)-[5-(5,6,7,8-tetrahydro-[1,2,4]triazolo[4,3-a]pyridin-3-yl)-pyridin-2-yl]-amine]
25 | 100% | CCn1ccnc1-c1cnc(Nc2ccc(Cl)cc2)c(Cl)c1 [Compound 15, [3-Chloro-5-(1-ethyl-1H-imidazol-2-yl)-pyridin-2-yl]-(4-chloro-phenyl)-amine]
26 | 95% | Clc1ccc(Nc2ncc(-c3ncc4n3CCCC4)cc2Cl)cc1 [Compound 17, (4-Chloro-phenyl)-[3-chloro-5-(5,6,7,8-tetrahydro-imidazo[1,5-a]pyridin-3-yl)-pyridin-2-yl]-amine]
27 | 95% | CCn1ccnc1-c1cnc(Nc2ccc(C)nc2)c(Cl)c1 [Compound 18, [3-Chloro-5-(1-ethyl-1H-imidazol-2-yl)-pyridin-2-yl]-(6-methyl-pyridin-3-yl)-amine]
28 | 56% | Clc1ccc(Nc2ncc(-c3nnn[nH]3)cc2Cl)cc1 [Compound 21, (4-Chloro-phenyl)-[3-chloro-5-(1H-tetrazol-5-yl)-pyridin-2-yl]-amine]
29 | 49% | CCCn1nnnc1-c1cnc(Nc2ccc(Cl)cc2)c(Cl)c1 [Compound 22, (4-Chloro-phenyl)-[3-chloro-5-(1-propyl-1H-tetrazol-5-yl)-pyridin-2-yl]-amine]
30 | 53% | CC(C)Cn1nnnc1-c1cnc(Nc2ccc(Cl)cc2)c(Cl)c1 [Compound 23, [3-Chloro-5-(1-isobutyl-1H-tetrazol-5-yl)-pyridin-2-yl]-(4-chloro-phenyl)-amine]
31 | 89% | Clc1ccc(Nc2ncc(-c3nnc4n3CCCC4)cc2Cl)cc1 [Compound 24, (4-Chloro-phenyl)-[3-chloro-5-(5,6,7,8-tetrahydro-[1,2,4]triazolo[4,3-a]pyridin-3-yl)-pyridin-2-yl]-amine]
32 | 93% | Clc1ccc(Nc2ncc(-c3nnc4n3CCCCC4)cc2Cl)cc1 [Compound 25, (4-Chloro-phenyl)-[3-chloro-5-(6,7,8,9-tetrahydro-5H-[1,2,4]triazolo[4,3-a]azepin-3-yl)-pyridin-2-yl]-amine]
33 | 98% | Clc1ccc(Nc2ncc(-c3nnc4n3CCCCCC4)cc2Cl)cc1 [Compound 26, [3-Chloro-5-(5,6,7,8,9,10-hexahydro-[1,2,4]triazolo[4,3-a]azocin-3-yl)-pyridin-2-yl]-(4-chloro-phenyl)-amine]
34 | 31% | CCn1cccc1-c1cnc(Nc2ccc(Cl)cc2)c(Cl)c1 [Compound 28, [3-Chloro-5-(1-ethyl-1H-pyrrol-2-yl)-pyridin-2-yl]-(4-chloro-phenyl)-amine]
35 | 98% | Cc1cn(C)c(-c2cnc(Nc3ccc(Cl)cc3)c(Cl)c2)n1 [Compound 30, [3-Chloro-5-(1,4-dimethyl-1H-imidazol-2-yl)-pyridin-2-yl]-(4-chloro-phenyl)-amine]
36 | 48% | Cc1cnc(-c2cnc(Nc3ccc(Cl)cc3)c(Cl)c2)n1C [Compound 31, [3-Chloro-5-(1,5-dimethyl-1H-imidazol-2-yl)-pyridin-2-yl]-(4-chloro-phenyl)-amine]
37 | 100% | CCCCn1cc(CC)nc1-c1cnc(Nc2ccc(Cl)cc2)c(Cl)c1 [Compound 35, [5-(1-Butyl-4-ethyl-1H-imidazol-2-yl)-3-chloro-pyridin-2-yl]-(4-chloro-phenyl)-amine]
38 | 86% | Cn1cc(C(C)(C)C)nc1-c1cnc(Nc2ccc(Cl)cc2)c(Cl)c1 [Compound 38, [5-(4-tert-Butyl-1-methyl-1H-imidazol-2-yl)-3-chloro-pyridin-2-yl]-(4-chloro-phenyl)-amine]
